Data as given in patent US4693996A, “Method of treating heart failure and medicaments therefor” (Warner-Lambert Company, priority 1985, dated 1987).

Experiments:
[1] = tested on: dopaminergic receptors; assay: dopaminergic receptor binding
[2] = tested on: muscarinic receptors; assay: muscarinic receptor binding
[3] = target: T1, A1 adenosine receptor (Rattus norvegicus, UniProt P25099); assay: A1 adenosine receptor binding, isolated rat brain membranes
T1 construct: isolated rat brain membranes; from tissue; host or cells: rat brain membranes
T1 sequence (P25099 1-326): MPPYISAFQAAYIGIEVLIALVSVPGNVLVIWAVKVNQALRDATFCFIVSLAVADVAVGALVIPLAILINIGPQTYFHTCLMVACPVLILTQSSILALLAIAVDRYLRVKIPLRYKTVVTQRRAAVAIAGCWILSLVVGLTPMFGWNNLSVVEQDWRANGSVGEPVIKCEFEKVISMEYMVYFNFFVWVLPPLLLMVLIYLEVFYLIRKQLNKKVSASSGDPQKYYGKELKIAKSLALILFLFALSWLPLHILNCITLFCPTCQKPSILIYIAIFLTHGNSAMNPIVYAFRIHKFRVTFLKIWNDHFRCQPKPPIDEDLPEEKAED

[4] = tested on: α2-adrenergic receptors; assay: α2-adrenergic receptor binding
[5] = tested on: α1-adrenergic receptors; assay: α1-adrenergic receptor binding
[6] = tested on: isolated-Langendorff perfused rat hearts; assay: isolated-Langendorff perfused rat hearts; conditions: 10^-8 -3×10^-6 M
[7] = tested on: anesthetized dog with propranolol-induced myocardial depression; assay: propranolol-induced acute heart failure in the anesthetized dog; type: in vivo; conditions: B 6 μg/kg/min infusion, A 0.01 to 3.0 mg/kg IV bolus
Method: CONT indicates the control before propanolol induced cardiac depression, DEP indicates a stable propanolol depression, and TD indicates administration of the initial test drug, either saline or (R)-N-(2,3-dihydro-1H-inden-1-yl)adenosine (B).
Adult mongrel dogs of either sex are anesthetized with sodium pentobarbital (32 mg/kg) IV, trachea intubated, and ventilated artificially. Anesthesia is maintained by a continuous infusion of sodium pentobarbital (3.0 mg/kg/hr) through a femoral vein cannula. Three additional venous cannulae are used for (1) propranolol infusion, (2) (R)-N-(2,3-dihydro-1H-inden-1-yl)adenosine or saline infusion and (3) bolus injections of either 4,5-dihydro-6-[4-(1H-imidazol-1-yl)phenyl]-3(2H)pyridazinone, hydrochloride salt or saline. Systemic arterial blood pressure, left ventricular contractility (dP/dt), and heart rate are recorded continuously. Cardiac output, measured by thermodilution, is recorded before myocardial depression, when stable myocardial depression is achieved (approximately 30 minutes), and ten minutes following each bolus dose. Following surgical preparation, 30 minutes are allowed for hemodynamic stabilization prior to induction of the myocardial depression. […]

[8] = tested on: α-aminobuteric acid receptors; assay: α-aminobuteric acid receptor binding
[9] = tested on: β1-adrenergic receptors; assay: β1-adrenergic receptor binding
[10] = tested on: β2-adrenergic receptors; assay: β2-adrenergic receptor binding
[11] = tested on: anesthetized-vagotomized normotensive rats; assay: hemodynamics in anesthetized-vagotomized normotensive rats; type: in vivo, rat; conditions: IV 3 to 300 mg/kg
Method: In this procedure the (R)-N-(2,3-dihydro-1H-inden-1-yl)adenosine (B) is administered intravenously (IV) at 3 to 300 mg/kg in anesthetized-vagotomized normotensive rats.

[12] = tested on: serotonergic receptors; assay: serotonergic receptor binding
[13] = tested on: anesthetized normotensive dogs; assay: hemodynamics in anesthetized normotensive dogs; type: in vivo, dog; conditions: IV
Method: Such administration is by a method essentially described as follows:
Mongrel dogs of either sex are anesthetized with sodium pentobarbital (30 mg/kg IV) and mechanically ventilated with room air. The left and right femoral veins are cannulated for injection of test compound and maintenance anesthesia (3.5 mg/kg/hr), respectively. Cardiac output is measured by a thermodilution catheter positioned in the pulmonary artery. Left ventricular contractility (dP/dt) is measured by a Millar Mikro-Tip catheter pressure transducer positioned in the left ventricular cavity via the left carotid artery, heart rate, and lead II electrocardiogram are recorded continuously. Each animal is allowed 30 minutes to stabilize and hemodynamic control pressures, cardiac output, and electrocardiographic measurements are recorded. Compounds are dissolved in saline if possible and pH adjusted. If another solvent is required, vehicle control experiments are performed. Test compounds are administered as rising bolus doses usually starting at 0.1 midtherapeutic and increasing in half log doses to 30 X midtherapeutic. All cardiovascular measurements are repeated after each dose.
Agent induced effects on any of the cardiovascular measurements are recorded.

[14] = combination compared with A alone at comparable doses

binding to dopaminergic receptors [1]: does not significantly bind | binding to muscarinic receptors [2]: does not significantly bind | IC50 [3]: 0.03 µM | binding to α2-adrenergic receptors [4]: does not significantly bind | binding to α1-adrenergic receptors [5]: does not significantly bind | binding to α-aminobuteric acid receptors [8]: does not significantly bind | binding to β1-adrenergic receptors [9]: does not significantly bind | binding to β2-adrenergic receptors [10]: does not significantly bind | binding to serotonergic receptors [12]: does not significantly bind
SMILES: OC[C@H]1O[C@@H](n2cnc3c(N[C@@H]4CCc5ccccc54)ncnc32)[C@H](O)[C@@H]1O [B, (R)-N-(2,3-dihydro-1H-inden-1-yl)adenosine]
heart rate [6]: decreases | coronary flow ([6]; isolated perfused rat heart): Concentration-dependent increases | pressure volume relationship of the left ventricle (LVEDP vs stroke volume) [7]: did not increase dP/dt, cardiac output, or affect the pressure volume relationship | cardiac output [7, 14]: did not increase | myocardial contractility (dP/dt of left ventricular pressure) [7, 14]: did not increase | heart rate [11]: dose-related decreases | mean arterial blood pressure [11]: dose-related decreases | calculated total peripheral resistance [13]: dose-related decreases | heart rate [13]: dose-related decreases | mean arterial blood pressure [13]: dose-related decreases
